For assay [1], the system named is Aedes albopictus. In words: Effective dose / protection efficacy, human-bait technique. The class given is in vivo. The following applies: for pest or weed control at 0.081 µg/cm2, 0.081 µg/cm2 / pest or weed control at 0.17 µg/cm2, 0.17 µg/cm2 / pest or weed control at 0.33 µg/cm2, 0.33 µg/cm2 / pest or weed control at 0.5 µg/cm2, 0.5 µg/cm2 / pest or weed control at 0.83 µg/cm2, 0.83 µg/cm2 / pest or weed control at 1.7 µg/cm2, 1.7 µg/cm2 / pest or weed control at 8.3 µg/cm2, 8.3 µg/cm2 / pest or weed control at 16.7 µg/cm2, 16.7 µg/cm2 / pest or weed control at 83.3 µg/cm2, 83.3 µg/cm2: Aedes albopictus, topical, read-out: Protection efficacy PE%; for 100% PE: Table S1; for Protection efficacy (dose to obtain complete protection (100%) from bite attempts): applied on skin of volunteers, 3 min exposure. How it is done:
The repellence of DEET, Icaridin (both supplied by Istituto Biochimico VEBI s.r.l.), acetals, and the synthesized hydroxyacetals was evaluated againstAedes albopictususing the human-bait technique (to simulate the condition of human skin on which repellents will be applied).[22]A. albopictuswas reared and tested at 26 ± 2 °C, ≥60 ± 10% relative humidity (RH), and at 14:10 h light/dark photoperiod, within Plexiglas cylindrical laboratory cages (35 cm diameter, 60 cm length) with one end closed by a net. During the tests, cages contained ≈150 nulliparous, 4–7 day-old, nonblood-fed females. For each compound to be tested, up to six volunteers participated in the trial.
The study was approved by the Regional Ethics Committee for Clinical Trials of Tuscany Region with the registered number 20383. Volunteers agreed to take part in the experiments following informed consent; only volunteers non-allergic to mosquito bites participated in the trials. On the day of the bioassay, they had no contact with lotions, perfumes, oils, or perfumed soaps. They wore latex surgical gloves, in which a dorsal square area of 30 cm^2 was cut open. Mosquito-exposed skin was treated with 50 μL of ethanol, as the negative hand control. The other hand was treated with 50 μL of the tested compounds in ethanol solution (dosages corresponding to 0.081, 0.17, 0.33, 0.5, 0.83, 1.7, 8.3, 16.7, and 83.3 μg/cm^2). Both hands were presented in the same test cage. The number of probing mosquitoes in a 3 min exposure period was recorded. During each test, the control and the treated hand were presented interchanged to verify the mosquitoes’ readiness to bite. Trials were considered valid only if at least 30 mosquitoes performed probing behavior on the control hand before each repellent dosage was tested. The protection efficacy (PE %) obtained from all replicates was calculated, according to the WHO guidelines[31] using this formula [drawing 1]
To evaluate the protection efficacy, volunteers applied increasing doses of the compounds to the skin on the back of their hands (30 cm^2, while the rest was covered with a rubber glove) and counted the number of mosquitoes attempting to bite; the solvent only was used on the control hand. The protection (percentage of repelled mosquitoes) was calculated as reported in the Material and Methods section.

Assay [2] relates to Aedes albopictus. As to the kind of experiment: Protection time at 0.17 mg/cm2, human-bait technique. In kind it is in vivo. The note with it: for pest or weed control at 0.17 mg/cm2, 0.17 mg/cm2: Aedes albopictus, topical, read-out: Protection time PE%; for Average PT >95% (% coefficient of variation) / Estimated 100% PT (complete protection time, mean±SE): at the dose of 0.17mg/cm2; for Estimated 100% PT (complete protection time, mean±SE): Kaplan–Meier estimate; for Protection time (95% protection): dose of 0.17 mg/cm^2, tests ended after 8 h. The procedure:
To evaluate the protection time of derivatives, the PE % was measured with 100 μL of a 5% ethanol solution, corresponding to 0.17 mg/cm^2 of exposed skin, under the same laboratory conditions. Mosquito-exposed skin was treated with 100 μL of ethanol, as the negative hand control. For each volunteer (up to 8), the test was performed every hour, up to 8 h from the application. The protection time of DEET and Icaridin was measured under the same conditions. Since these trials were run in parallel with those aimed to profile the cytotoxicity of the compounds (paragraph 2.6), we interrupted the experiments for those compounds showing to have higher cytotoxicity than Icaridin and DEET as soon as the results were available. For this reason, the number of volunteers differs among the compounds.
The average time until protection which was higher than 95% protection time was considered for each compound. Moreover, for the compounds tested on at least three volunteers, the complete (100%) protection time was also estimated (SPSS 28.01.0) using the Kaplan–Meier survivor function procedure.[22]

Where two headings read alike, the source gives them in different places.

In the case of `CCCCC1(CCCC)OCC(C)(CO)CO1` [16b], in the assay with Aedes albopictus [1], the pest or weed control at 0.081 µg/cm2, 0.081 µg/cm2 was 0%; the pest or weed control at 0.17 µg/cm2, 0.17 µg/cm2 came to 40.6%; the pest or weed control at 0.33 µg/cm2, 0.33 µg/cm2 was 31.2%; the pest or weed control at 0.5 µg/cm2, 0.5 µg/cm2 turned out to be 68.4%. Moreover, in the assay with Aedes albopictus [1], the pest or weed control at 0.83 µg/cm2, 0.83 µg/cm2 amounted to 94.7%; the pest or weed control at 1.7 µg/cm2, 1.7 µg/cm2 worked out at 100%; the pest or weed control at 8.3 µg/cm2, 8.3 µg/cm2 was 100%; the pest or weed control at 16.7 µg/cm2, 16.7 µg/cm2 was found to be 100%. Also, in the assay with Aedes albopictus [1], the pest or weed control at 83.3 µg/cm2, 83.3 µg/cm2 was 100%; the “100% PE” value was found to be 1.7 µg/cm2; the “Protection efficacy (dose to obtain complete protection (100%) from bite attempts)” value is 1.7 μg/cm^2. In addition, the pest or weed control at 0.17 mg/cm2, 0.17 mg/cm2 in the assay with Aedes albopictus [2] (0.17mg/cm2, 1 h) is 98.6%. Further, the pest or weed control at 0.17 mg/cm2, 0.17 mg/cm2 in the assay on Aedes albopictus [2] (0.17mg/cm2, 2 h) is 97.5%. Also, the pest or weed control at 0.17 mg/cm2, 0.17 mg/cm2 in the assay on Aedes albopictus [2] (0.17mg/cm2, 3 h) is 99.5%. In addition, in the assay with Aedes albopictus [2] (0.17mg/cm2, 4 h), the pest or weed control at 0.17 mg/cm2, 0.17 mg/cm2 is 96.3%. Also, in the assay with Aedes albopictus [2] (0.17mg/cm2, 5 h), the pest or weed control at 0.17 mg/cm2, 0.17 mg/cm2 is 95.1%. The pest or weed control at 0.17 mg/cm2, 0.17 mg/cm2 with Aedes albopictus [2] (0.17mg/cm2, 6 h) stood at 93.7%. Besides, the pest or weed control at 0.17 mg/cm2, 0.17 mg/cm2 with Aedes albopictus [2] (0.17mg/cm2, 7 h) came to 96.2%. Further, the pest or weed control at 0.17 mg/cm2, 0.17 mg/cm2 with Aedes albopictus [2] (0.17mg/cm2, 8 h) was found to be 94.6%. Further, in the assay with Aedes albopictus [2], the “Average PT >95% (% coefficient of variation)” value is reported as 420 (8.0) min; the “Estimated 100% PT (complete protection time, mean±SE)” value was 180 ± 64 min; the “Protection time (95% protection)” value was determined as 7 h.

Consider `CCN(CC)C(=O)c1cccc(C)c1` [DEET, N,N-diethyl-3-methylbenzamide, reference compound], for which, in the assay on Aedes albopictus [1], the pest or weed control at 0.081 µg/cm2, 0.081 µg/cm2 came out at 18.9%; the pest or weed control at 0.17 µg/cm2, 0.17 µg/cm2 stood at 34.7%; the pest or weed control at 0.33 µg/cm2, 0.33 µg/cm2 turned out to be 67.3%; the pest or weed control at 0.5 µg/cm2, 0.5 µg/cm2 turned out to be 74.4%. In the assay with Aedes albopictus [1], the pest or weed control at 0.83 µg/cm2, 0.83 µg/cm2 amounted to 79.8%; the pest or weed control at 1.7 µg/cm2, 1.7 µg/cm2 came out at 88.6%; the pest or weed control at 8.3 µg/cm2, 8.3 µg/cm2 was 100%; the pest or weed control at 16.7 µg/cm2, 16.7 µg/cm2 is 100%. Besides, in the assay on Aedes albopictus [1], the pest or weed control at 83.3 µg/cm2, 83.3 µg/cm2 came out at 100%; the “100% PE” value is recorded as 8.3 µg/cm2; the “Protection efficacy (dose to obtain complete protection (100%) from bite attempts)” value amounted to 8.3 μg/cm^2. Moreover, the pest or weed control at 0.17 mg/cm2, 0.17 mg/cm2 in the assay on Aedes albopictus [2] (0.17mg/cm2, 1 h) came to 98%. The pest or weed control at 0.17 mg/cm2, 0.17 mg/cm2 in the assay on Aedes albopictus [2] (0.17mg/cm2, 2 h) is 87.4%. For the same compound, the pest or weed control at 0.17 mg/cm2, 0.17 mg/cm2 in the assay with Aedes albopictus [2] (0.17mg/cm2, 3 h) was determined as 81.4%. Further, the pest or weed control at 0.17 mg/cm2, 0.17 mg/cm2 with Aedes albopictus [2] (0.17mg/cm2, 4 h) amounted to 59.4%. Also, in the assay on Aedes albopictus [2], the “Average PT >95% (% coefficient of variation)” value was 120 (1.4) min; the “Estimated 100% PT (complete protection time, mean±SE)” value is 120 ± 26 min; the “Protection time (95% protection)” value amounted to 2 h.

Values taken from publication PMC9896555, “Cyclic Acetals as Novel Long-Lasting Mosquito Repellents” (Journal of Agricultural and Food Chemistry, 2023).
